Tests used:
Type in all cases: cell-based, human
[1] = system: HepG2 cells; assay: mRNA (real-time PCR) and protein (lysate probing) expression in HepG2 cells
Protocol: Using RNAiMAX (Life Technologies/Thermo Fisher Scientific), HepG2 cells, Huh6 cells, Hep3B cells, JHH7 cells, and SKMEL28 cells were each transfected with each siRNA (10 nm). In experiments, the cells were used from 48 to 120 hours after transfection.

[2] = system: HepG2 cells; assay: Cell proliferation assay, two-dimensional culture (plastic dish), Cyquant
Protocol: Cells were seeded on a plate at 1.0×10^4 cells/mL, and, after 12 hours, the medium was replaced with a medium containing 10% serum. While the cell number was counted every 48 hours, the cells were cultured up to 10 days. The measurement of the cell number was performed using Cyquant NF assays (Life Technologies/Thermo Fisher Scientific) according to protocols recommended by the manufacturer.
Mock HepG2 cells (having a vector only, containing no GREB1) or GREB1-transduced HepG2 cells were transfected with control siRNA or two different types of siRNA (GREB1 #1 siRNA and GREB1 #2 siRNA), then two-dimensional culture (plastic dish culture) was performed, and a relative cell number was calculated by Cyquant assay overtime. As a result, in GREB1 knockdown, proliferative capacity of HepG2 cells in two-dimensional culture was reduced. However, when GREB1-transduced HepG2 cells were transfected with siRNAs against GREB1 (GREB1 #1 siRNA/GREB1 and GREB1 #2 siRNA/GREB1), the proliferative capacity of HepG2 cells was not affected (see a of FIG. 4).

[3] = system: Smad2/3; assay: Smad2/3 immunostaining and immunoprecipitation in HepG2 cells
Protocol: HepG2 cells (100 mm diameter dish) were lysed with 400 μl of a cell lysis buffer (10 mM Tris-HCl [pH 7.4], 140 mM NaCl, 5 mM EDTA, 1% NP40, 25 mM NaF, […], and 10 mM PMSF). The resulting lysate was immunoprecipitated with anti-Smad2/3 antibody, and the immunoprecipitates were probed with predetermined antibodies.
Further, HepG2 cells transfected with control siRNA or GREB1 #2 siRNA were cultured in the presence or absence of 10 ng/mL of TGFβ for 30 minutes. The cultured cells were fixed, and immunostained with anti-Smad2/3 antibody (see c of FIG. 8). Further, cell lysates of the cultured cells were immunoprecipitated with anti-Smad2/3 antibody. Next, the resulting cell lysates (Input) and immunoprecipitates (IP) were reacted with anti-Smad4 antibody or anti-Smad2/3 antibody (see d of FIG. 8). In addition, the cell lysates of the cultured cells were reacted with anti-GREB1 antibody, anti-phosphorylated Smad2/3 (pSmad2/3) antibody, or anti-Smad2/3 antibody (see e of FIG. 8).
Lysates of HepG2 cells transfected with control siRNA or GREB1 #2 siRNA were immunoprecipitated with anti-Smad2/3 antibody. Next, the resulting cell lysates (input) and immunoprecipitates (IP) were reacted with anti-p300 antibody, anti-GREB1 antibody, or anti-Smad2/3 antibody (see e of FIG. 7). […]

Substance: GREB1 #2 siRNA: siRNA against human GREB1; sense 5′-CCUCCUACAAAGCAAUAUUTT-3′ (SEQ ID NO: 6), antisense SEQ ID NO: 7 (antisense AAUAUUGCUUUGUAGGAGGTT; chemistry not given here)
- expression levels of PAI-1 and SNAIL2 ([1]; HepG2/GFP cells, real-time PCR, n=3): increased
- PAI-1 and SNAIL2 phenotypes of GREB1 knockdown ([1]; HepG2/GFP-GREB1 cells (expression of GFP-GREB1)): restored
- amounts of cleaved caspase 3 and PARP1 ([1]; HepG2 cells, 0.1% FBS for 2 days, lysate probing): increased
- expressions of β-catenin and Axin2 ([1]; HepG2 cells, GREB1 knockdown, lysate probing): no effect
- expressions of PRLR and XBP1 (ER signal target genes) ([1]; HepG2 cells, GREB1 knockdown, real-time PCR): no effect
- expression of cell cycle regulators cyclinA, cyclinB, phosphorylated histone H3 ([1]; HepG2 cells, medium containing 1% FBS for 1 day, lysate probing): decreases
- increases in mRNA levels of PAI-1 and SNAIL2 by knockdown of GREB1 ([1]; HepG2 cells, presence or absence of TGFβ receptor inhibitor (ALK5 inhibitor)): TGFβ receptor signal dependent
- expressions of DLK1, AFP, and PEG3 ([1]; HepG2 cells, real-time PCR): significantly decreased
- decrease in expression of AFP by knockdown of GREB1 ([1]; Smad2/3 knockout HepG2 cells vs HepG2 cells, real-time PCR): restored
- decrease in expression of DLK1 by knockdown of GREB1 ([1]; effect of Smad2/3 knockout in HepG2 cells): no effect
- proliferative capacity of HepG2 cells in two-dimensional culture ([2]; GREB1-transduced HepG2 cells): not affected
- proliferative capacity of HepG2 cells in two-dimensional culture ([2]; mock HepG2 cells, relative cell number by Cyquant over time): reduced
- TGFβ-dependent nuclear transport of Smad2/3, complex formation of Smad2/3 and Smad4, phosphorylation of Smad2/3 ([3]; 10 ng/mL TGFβ for 30 minutes): no effect
- binding of Smad2/3 to p300 ([3]; anti-Smad2/3 immunoprecipitation): increased

Source: patent US20220249538A1, “TREATMENT AGENT FOR SEX HORMONE-INSENSITIVE GREB1-POSITIVE TUMORS” (OSAKA UNIVERSITY, priority 2019, published 2022)
